In ChEMBL document CHEMBL5154747, “Discovery of new carbonic anhydrase IX inhibitors as anticancer agents by toning the hydrophobic and hydrophilic rims of the active site to encounter the dual-tail approach” (Eur J Med Chem, 2022):

Legend:
Format in all cases: functional
Settings in all cases: read-out: GI
[1] = test system: SNB-19; experiment: Anticancer activity against human SNB-19 cells assessed as cell growth inhibition at 10 uM incubated for 48 hrs by SRB assay relative to control
[2] = test system: IGROV-1; experiment: Anticancer activity against human IGROV-1 cells assessed as cell growth inhibition at 10 uM incubated for 48 hrs by SRB assay relative to control
[3] = test system: MDA-MB-468; experiment: Anticancer activity against human MDA-MB-468 cells assessed as cell growth inhibition at 10 uM incubated for 48 hrs by SRB assay relative to control
[4] = test system: RPMI-8226; experiment: Anticancer activity against human RPMI-8226 cells assessed as cell growth inhibition at 10 uM incubated for 48 hrs by SRB assay relative to control
[5] = test system: OVCAR-4; experiment: Anticancer activity against human OVCAR-4 cells assessed as cell growth inhibition at 10 uM incubated for 48 hrs by SRB assay relative to control
[6] = test system: SW-620; experiment: Anticancer activity against human SW-620 cells assessed as cell growth inhibition at 10 uM incubated for 48 hrs by SRB assay relative to control
[7] = test system: RXF 393; experiment: Anticancer activity against human RXF 393 cells assessed as cell growth inhibition at 10 uM incubated for 48 hrs by SRB assay relative to control
[8] = test system: Hs-578T; experiment: Anticancer activity against human Hs-578T cells assessed as cell growth inhibition at 10 uM incubated for 48 hrs by SRB assay relative to control
[9] = test system: NCI-H322M; experiment: Anticancer activity against human NCI-H322M cells assessed as cell growth inhibition at 10 uM incubated for 48 hrs by SRB assay relative to control
[10] = test system: OVCAR-3; experiment: Anticancer activity against human OVCAR-3 cells assessed as cell growth inhibition at 10 uM incubated for 48 hrs by SRB assay relative to control
[11] = test system: MDA-MB-231; experiment: Anticancer activity against human MDA-MB-231 cells assessed as cell growth inhibition at 10 uM incubated for 48 hrs by SRB assay relative to control
[12] = test system: NCI/ADR-RES; experiment: Anticancer activity against human NCI/ADR-RES cells assessed as cell growth inhibition at 10 uM incubated for 48 hrs by SRB assay relative to control
[13] = test system: SK-OV-3; experiment: Anticancer activity against human SK-OV-3 cells assessed as cell growth inhibition at 10 uM incubated for 48 hrs by SRB assay relative to control
[14] = test system: HL-60(TB); experiment: Anticancer activity against human HL-60(TB) cells assessed as cell growth inhibition at 10 uM incubated for 48 hrs by SRB assay relative to control
[15] = test system: Malme-3M; experiment: Anticancer activity against human Malme-3M cells assessed as cell growth inhibition at 10 uM incubated for 48 hrs by SRB assay relative to control
[16] = test system: NCI-H522; experiment: Anticancer activity against human NCI-H522 cells assessed as cell growth inhibition at 10 uM incubated for 48 hrs by SRB assay relative to control
[17] = test system: SK-MEL-2; experiment: Anticancer activity against human SK-MEL-2 cells assessed as cell growth inhibition at 10 uM incubated for 48 hrs by SRB assay relative to control
[18] = test system: HOP-62; experiment: Anticancer activity against human HOP-62 cells assessed as cell growth inhibition at 10 uM incubated for 48 hrs by SRB assay relative to control
[19] = test system: A549; experiment: Anticancer activity against human A549 cells assessed as cell growth inhibition at 10 uM incubated for 48 hrs by SRB assay relative to control
[20] = test system: SK-MEL-5; experiment: Anticancer activity against human SK-MEL-5 cells assessed as cell growth inhibition at 10 uM incubated for 48 hrs by SRB assay relative to control
[21] = test system: KM12; experiment: Anticancer activity against human KM12 cells assessed as cell growth inhibition at 10 uM incubated for 48 hrs by SRB assay relative to control
[22] = test system: SK-MEL-28; experiment: Anticancer activity against human SK-MEL-28 cells assessed as cell growth inhibition at 10 uM incubated for 48 hrs by SRB assay relative to control
[23] = test system: NCI-H23; experiment: Anticancer activity against human NCI-H23 cells assessed as cell growth inhibition at 10 uM incubated for 48 hrs by SRB assay relative to control
[24] = test system: CAKI-1; experiment: Anticancer activity against human CAKI-1 cells assessed as cell growth inhibition at 10 uM incubated for 48 hrs by SRB assay relative to control
[25] = test system: K562; experiment: Anticancer activity against human K562 cells assessed as cell growth inhibition at 10 uM incubated for 48 hrs by SRB assay relative to control
[26] = test system: MOLT-4; experiment: Anticancer activity against human MOLT-4 cells assessed as cell growth inhibition at 10 uM incubated for 48 hrs by SRB assay relative to control
[27] = test system: SF-295; experiment: Anticancer activity against human SF-295 cells assessed as cell growth inhibition at 10 uM incubated for 48 hrs by SRB assay relative to control
[28] = test system: OVCAR-8; experiment: Anticancer activity against human OVCAR-8 cells assessed as cell growth inhibition at 10 uM incubated for 48 hrs by SRB assay relative to control
[29] = test system: SNB-75; experiment: Anticancer activity against human SNB-75 cells assessed as cell growth inhibition at 10 uM incubated for 48 hrs by SRB assay relative to control
[30] = test system: HOP-92; experiment: Anticancer activity against human HOP-92 cells assessed as cell growth inhibition at 10 uM incubated for 48 hrs by SRB assay relative to control
[31] = test system: UACC-257; experiment: Anticancer activity against human UACC-257 cells assessed as cell growth inhibition at 10 uM incubated for 48 hrs by SRB assay relative to control
[32] = test system: A498; experiment: Anticancer activity against human A498 cells assessed as cell growth inhibition at 10 uM incubated for 48 hrs by SRB assay relative to control
[33] = test system: EKVX; experiment: Anticancer activity against human EKVX cells assessed as cell growth inhibition at 10 uM incubated for 48 hrs by SRB assay relative to control
[34] = test system: T47D; experiment: Anticancer activity against human T47D cells assessed as cell growth inhibition at 10 uM incubated for 48 hrs by SRB assay relative to control
[35] = test system: BT-549; experiment: Anticancer activity against human BT-549 cells assessed as cell growth inhibition at 10 uM incubated for 48 hrs by SRB assay relative to control
[36] = test system: SF-268; experiment: Anticancer activity against human SF-268 cells assessed as cell growth inhibition at 10 uM incubated for 48 hrs by SRB assay relative to control
[37] = test system: MDA-MB-435; experiment: Anticancer activity against human MDA-MB-435 cells assessed as cell growth inhibition at 10 uM incubated for 48 hrs by SRB assay relative to control
[38] = test system: COLO 205; experiment: Anticancer activity against human COLO 205 cells assessed as cell growth inhibition at 10 uM incubated for 48 hrs by SRB assay relative to control
[39] = test system: 786-0; experiment: Anticancer activity against human 786-0 cells assessed as cell growth inhibition at 10 uM incubated for 48 hrs by SRB assay relative to control

Compound	inhibition of growth at 10 µM [1] [%]	inhibition of growth at 10 µM [2] [%]	inhibition of growth at 10 µM [3] [%]	inhibition of growth at 10 µM [4] [%]	inhibition of growth at 10 µM [5] [%]	inhibition of growth at 10 µM [6] [%]	inhibition of growth at 10 µM [7] [%]	inhibition of growth at 10 µM [8] [%]	inhibition of growth at 10 µM [9] [%]	inhibition of growth at 10 µM [10] [%]	inhibition of growth at 10 µM [11] [%]	inhibition of growth at 10 µM [12] [%]	inhibition of growth at 10 µM [13] [%]	inhibition of growth at 10 µM [14] [%]	inhibition of growth at 10 µM [15] [%]	inhibition of growth at 10 µM [16] [%]	inhibition of growth at 10 µM [17] [%]	inhibition of growth at 10 µM [18] [%]	inhibition of growth at 10 µM [19] [%]	inhibition of growth at 10 µM [20] [%]	further results
NS(=O)(=O)c1ccc(Nc2nc(N/N=C/c3ccc([N+](=O)[O-])cc3)nc(Nc3ccccc3)n2)cc1	79	47	98	56	44	81	105	46	60	53	54	< 10	32	64	63	51	81	90	< 10	67	inhibition of growth at 10 µM [21]: 62%; inhibition of growth at 10 µM [22]: 64%; inhibition of growth at 10 µM [23]: 87%; inhibition of growth at 10 µM [24]: 49%; inhibition of growth at 10 µM [25]: 79%; inhibition of growth at 10 µM [26]: 88%; inhibition of growth at 10 µM [27]: 42%; inhibition of growth at 10 µM [28]: 66%; inhibition of growth at 10 µM [29]: 54%; inhibition of growth at 10 µM [30]: 50%; inhibition of growth at 10 µM [31]: 17%; inhibition of growth at 10 µM [32]: 81%; inhibition of growth at 10 µM [33]: 16%; inhibition of growth at 10 µM [34]: 85%; inhibition of growth at 10 µM [35]: 81%; inhibition of growth at 10 µM [36]: 73%; inhibition of growth at 10 µM [37]: 66%; inhibition of growth at 10 µM [38]: 76%; inhibition of growth at 10 µM [39]: 91%
Cc1nn(-c2ccccc2)cc1/C=N/Nc1nc(Nc2ccccc2)nc(Nc2ccc(S(N)(=O)=O)cc2)n1	92	86	137	123	85	114	120	86	90	131	120	23	49	96	125	100	45	90	128	144	inhibition of growth at 10 µM [21]: 90%; inhibition of growth at 10 µM [22]: 113%; inhibition of growth at 10 µM [23]: 114%; inhibition of growth at 10 µM [24]: 127%; inhibition of growth at 10 µM [25]: 90%; inhibition of growth at 10 µM [26]: 93%; inhibition of growth at 10 µM [27]: 89%; inhibition of growth at 10 µM [28]: 81%; inhibition of growth at 10 µM [29]: 55%; inhibition of growth at 10 µM [30]: 113%; inhibition of growth at 10 µM [31]: 44%; inhibition of growth at 10 µM [32]: 130%; inhibition of growth at 10 µM [33]: 81%; inhibition of growth at 10 µM [34]: 81%; inhibition of growth at 10 µM [35]: 78%; inhibition of growth at 10 µM [36]: 107%; inhibition of growth at 10 µM [37]: 131%; inhibition of growth at 10 µM [38]: 122%; inhibition of growth at 10 µM [39]: 147%
NS(=O)(=O)c1ccc(Nc2nc(N/N=C/c3ccccn3)nc(Nc3ccccc3)n2)cc1	90	130	129	63	120	117	174	118	109	115	129	51	131	97	168	132	182	128	64	184	inhibition of growth at 10 µM [21]: 95%; inhibition of growth at 10 µM [22]: 164%; inhibition of growth at 10 µM [23]: 107%; inhibition of growth at 10 µM [24]: 125%; inhibition of growth at 10 µM [25]: 87%; inhibition of growth at 10 µM [26]: 96%; inhibition of growth at 10 µM [27]: 100%; inhibition of growth at 10 µM [28]: 96%; inhibition of growth at 10 µM [29]: 125%; inhibition of growth at 10 µM [30]: 146%; inhibition of growth at 10 µM [31]: 118%; inhibition of growth at 10 µM [32]: 167%; inhibition of growth at 10 µM [33]: 86%; inhibition of growth at 10 µM [34]: 118%; inhibition of growth at 10 µM [35]: 120%; inhibition of growth at 10 µM [36]: 122%; inhibition of growth at 10 µM [37]: 184%; inhibition of growth at 10 µM [38]: 142%; inhibition of growth at 10 µM [39]: 91%
NS(=O)(=O)c1ccc(Nc2nc(N/N=C/c3ccc(F)cc3)nc(Nc3ccccc3)n2)cc1	30	56	45	49	44	24	42	59	41	69	38	< 10	28	39	42	84	109	82	92	61	inhibition of growth at 10 µM [21]: 69%; inhibition of growth at 10 µM [22]: 36%; inhibition of growth at 10 µM [23]: 45%; inhibition of growth at 10 µM [24]: 43%; inhibition of growth at 10 µM [25]: 45%; inhibition of growth at 10 µM [26]: 78%; inhibition of growth at 10 µM [27]: 29%; inhibition of growth at 10 µM [28]: 70%; inhibition of growth at 10 µM [29]: < 10%; inhibition of growth at 10 µM [30]: 36%; inhibition of growth at 10 µM [31]: 52%; inhibition of growth at 10 µM [33]: 37%; inhibition of growth at 10 µM [34]: 79%; inhibition of growth at 10 µM [35]: 32%; inhibition of growth at 10 µM [36]: 58%; inhibition of growth at 10 µM [37]: 46%; inhibition of growth at 10 µM [38]: 79%; inhibition of growth at 10 µM [39]: 41%
